Assay results: patent US12134604B1, “1-[4,5-bis(4-chlorophenyl)-1-hexyl-1H-imidazol-2-yl]-2-naphthol as an antimicrobial compound” (KING FAISAL UNIVERSITY, priority 2023, dated 2024)

Columns and labels:
Type in all cases: cell-based
Conditions in all cases: after 10, 20, 40 and 60 minutes at all dilutions 1:100, 1:200, 1:400, 1:800 (summary in words)
Staphylococcus aureus = assay: Antimicrobial screening by agar dilution, Staphylococcus aureus
Procedure: (§1) The antimicrobial properties of the 1-[4,5-bis(4-chlorophenyl)-1-hexyl-1H-imidazol-2-yl]-2-naphthol was studied by the method of agar dilution. Test solutions of each compound was prepared in concentration of 1% using dimethylformamide as a solvent then they are diluted in physiological solution to obtain the final experimental dilutions 1:100, 1:200, 1:400, 1:800. The effect of these substances are compared with furacillin in a controlled study. The testing microbes used were gram positive bacteria Staphylococcus aureus, gram negative bacteria Pseudomonas aeruginosa and Escherichia coli and Candida albicans fungi were taken. The experiments used for this survey were meat-pentonlu agar (EPA) for cultivation of bacteria and Saburo environment for fungi. Each experiment used 1 ml of test solution on each plate 500 min. Add 2 drops of emulsified with microbes feel. All experimental samples were taken from the agar after 10, 20, 40, 60 minutes in the environment on the basis of Patrk planted. Bacteria were cultivated at a temperature of 37° C. for 1 day and the mushroom was kept in a thermostat for […] at a temperature of 28° C. in the. Then results were checked.

Pseudomonas aeruginosa = assay: Antimicrobial screening by agar dilution, Pseudomonas aeruginosa
Procedure: as §1

Candida albicans = assay: Antimicrobial (antifungal) screening by agar dilution, Candida albicans
Procedure: as §1

Escherichia coli = assay: Antimicrobial screening by agar dilution, Escherichia coli
Procedure: as §1

Measured: inhibition activity

CCCCCCn1c(-c2c(O)ccc3ccccc23)nc(-c2ccc(Cl)cc2)c1-c1ccc(Cl)cc1 [1-[4,5-bis(4-chlorophenyl)-1-hexyl-1H-imidazol-2-yl]-2-naphthol]
highest inhibition activity: all assays above
